In US8604053B2, “TRPV1 antagonists” (AbbVie Inc., priority 2008, dated 2013):

Columns and labels:
CYP2C9 = molecular target: T1, CYP2C9 (Homo sapiens, UniProt P11712); test: CYP2C9 inhibition assay; format: in vitro ADME; settings: human liver microsomes, substrate Luciferin-H; for inhibition at 25 min, 2.2 µM: pH 7.4, probe Luciferin-H (100 μM final), read-out: CYP2C9 % inh @ 2.2 μM
T1 construct: human liver microsomes (BD Gentest); tissue BD Gentest; host or cells: human liver microsomes
Procedure, shortened: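 Human liver microsomes (0.4 mg/mL) with NADPH-regenerating system in pH 7.4 phosphate, preincubated with compound 10 min at 37 °C. Luciferin-H (100 μM final) then added for 25 min at 37 °C, 1% DMSO. Luminescence read after Luciferin-H detection reagent; run in duplicate.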

CYP2D6 = molecular target: T2, CYP2D6 (Homo sapiens, UniProt P10635); test: in vitro; format: in vitro ADME; settings: microsomes; for inhibition at 25 min, 2.2 µM: human, pH 7.4
T2 construct: human liver microsomes (BD Gentest); tissue BD Gentest; host or cells: human liver microsomes
Description: Stock solutions of test compounds were assayed in 96-well format for their ability to inhibit CYP2C9, CYP2D6, or CYP3A4 mediated metabolism of test substrates. Luciferin-H was used as the substrate for CYP2C9; 3-[2-(N,N-diethyl-N-methylammonium)ethyl]-7-methoxy-4-methylcoumarin (AMMC) was used as the substrate for CYP2D6; 7-benzyloxyquiniline (BZQ) was used as the substrate for CYP3A4. For each subtype, positive controls (sulphaphenazole in the case of CYP2C9; quinidine in the case of CYP2D6, ketoconazole in the case of CYP3A4) were used to validate assay results run in duplicate.
Pre-Incubation Mixture Preparation for CYP2C9 and CYP2D6: A pre-incubation mixture was prepared by combining 100 mM phosphate buffer (9.12 mL; pH 7.4), human liver microsomes (BD Gentest, 240 itt; final concentration: 0.4 mg/mL), and 10 mM nicotinamide adenine dinucleotide phosphate in 65.4 mM MgCl2 hexahydrate (120 μL; final concentration: 125 μM and 818 μM, respectively). To this was mixture is added a ‘regeneration’ mixture (120 μL) of 333 mM glucose-6-phosphate and 40 U/mL glucose-6-phosphate dehydrogenase in 5 mM sodium citrate (final concentration: 4 mM, 0.5 U/mL, and 0.06 mM, respectively).
Substrate Mixture Preparation for CYP2D6: To a solution of 100 mM phosphate buffer, (2.80 mL, pH 7.4) was added 10 mM AMMC in acetonitrile (14 itt; final solution concentration 0.05 mM, final assay concentration 10 μM).
(§1) CYP2D6 Inhibiton Assay: To each well in the assay plate containing varying concentrations of test compound or control compound in DMSO (10 μL), Pre-Incubation Mixture (40 μL) was added to the wells and the assay plate was pre-incubated for 10 minutes at 37° C., with shaking or rocking. A pre-read of each well was performed at 390 nm and 460 nm extinction/emission. CYP2D6 Substrate Mixture (10 μL) was added to all wells and the assay plate was incubated for an additional […] at 37° C., with shaking or rocking. Final DMSO concentration was 1%. A post-read of each well was then performed at 390 nm and 460 nm extinction/emission.

CYP3A4 = molecular target: T3, CYP3A4 (Homo sapiens, UniProt P08684); test: CYP3A4 inhibition assay; format: in vitro ADME; settings: human liver microsomes, substrate BZQ; for inhibition at 25 min, 2.2 µM: pH 7.4, probe 7-benzyloxyquiniline (BZQ), 50 μM final, read-out: CYP3A4 % inh @ 2.2 μM
T3 construct: human liver microsomes (BD Gentest, 450 μL; final concentration: 0.4 mg/mL); tissue BD Gentest; host or cells: human liver microsomes
Description: Luciferin-H was used as the substrate for CYP2C9; 3-[2-(N,N-diethyl-N-methylammonium)ethyl]-7-methoxy-4-methylcoumarin (AMMC) was used as the substrate for CYP2D6; 7-benzyloxyquiniline (BZQ) was used as the substrate for CYP3A4.
Pre-Incubation Mixture Preparation for CYP3A4: A pre-incubation mixture was prepared by combining 100 mM phosphate buffer (19.35 mL; pH 7.4), human liver microsomes (BD Gentest, 450 μL; final concentration: 0.4 mg/mL), and 10 mM nicotinamide adenine dinucleotide phosphate in 65.4 mM MgCl2 hexahydrate (225 μL; final concentration: 100 μM and 654 μM, respectively). To this was mixture was added a ‘regeneration’ mixture (225 μL) of 333 mM glucose-6-phosphate and 40 U/mL glucose-6-phosphate dehydrogenase in 5 mM sodium citrate (final concentration: 3.3 mM, 0.4 U/mL, and 0.05 mM, respectively).
Substrate Mixture Preparation for CYP3A4: To a solution of 100 mM phosphate buffer, (2.36 mL, pH 7.4) was added 30 mM BZQ in acetonitrile (40 μL; final solution concentration 0.5 mM, final assay concentration 50 μM).
as §1, with “CYP3A4” for “CYP2D6”, “μL), CYP3A4” for “μL),”, “(90” for “(40”, “405” for “390”, “535” for “460”

[1] = Assessment of hemodynamic profile in anesthetized rat; format: in vivo; settings: i.v. infusion 3, 10 and 30 mg/kg/30 minutes/dose, relative to vehicle control group
Description: Male Sprague-Dawley rats were anesthetized with Inactin, instrumented, and allowed to stabilize. Following a 30 minute baseline period, test compound was infused via intravenous administration at 3, 10, and 30 mg/kg/30 minutes/dose in a low volume PEG-400 vehicle (1 mL/kg) or 20:40:40 dimethylacetamide:propylene glycol:PEG-400 vehicle (1 mL/kg). A separate group of animals received infusion of vehicle alone. Mean arterial pressure (MAP) and heart rate (HR) were observed and recorded.

T2 sequence (P10635 whole entry): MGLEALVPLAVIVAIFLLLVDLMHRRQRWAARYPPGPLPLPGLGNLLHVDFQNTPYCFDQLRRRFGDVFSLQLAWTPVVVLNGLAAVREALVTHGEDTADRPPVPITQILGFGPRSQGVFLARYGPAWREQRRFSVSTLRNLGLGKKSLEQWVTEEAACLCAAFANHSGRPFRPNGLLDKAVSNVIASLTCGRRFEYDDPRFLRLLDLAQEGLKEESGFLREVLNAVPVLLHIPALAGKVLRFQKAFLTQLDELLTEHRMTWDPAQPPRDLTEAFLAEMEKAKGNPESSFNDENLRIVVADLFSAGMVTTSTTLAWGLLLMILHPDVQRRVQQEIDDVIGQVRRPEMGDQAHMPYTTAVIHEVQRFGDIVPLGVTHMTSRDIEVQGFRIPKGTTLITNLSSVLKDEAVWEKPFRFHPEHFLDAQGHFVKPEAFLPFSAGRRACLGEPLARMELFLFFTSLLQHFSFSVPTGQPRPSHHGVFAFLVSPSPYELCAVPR
T1 sequence (P11712 whole entry): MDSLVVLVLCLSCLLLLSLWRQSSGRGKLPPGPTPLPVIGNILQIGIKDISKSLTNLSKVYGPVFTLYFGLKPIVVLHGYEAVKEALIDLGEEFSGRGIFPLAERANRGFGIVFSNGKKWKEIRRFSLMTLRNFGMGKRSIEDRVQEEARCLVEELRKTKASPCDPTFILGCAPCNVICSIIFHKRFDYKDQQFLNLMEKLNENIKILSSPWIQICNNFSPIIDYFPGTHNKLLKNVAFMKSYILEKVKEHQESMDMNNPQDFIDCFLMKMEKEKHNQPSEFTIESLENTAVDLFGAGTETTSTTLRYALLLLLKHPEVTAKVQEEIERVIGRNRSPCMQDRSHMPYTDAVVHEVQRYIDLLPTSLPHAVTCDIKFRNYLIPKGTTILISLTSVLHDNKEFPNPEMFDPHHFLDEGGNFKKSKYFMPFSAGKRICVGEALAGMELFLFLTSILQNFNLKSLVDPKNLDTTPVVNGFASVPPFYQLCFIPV
T3 sequence (P08684 whole entry): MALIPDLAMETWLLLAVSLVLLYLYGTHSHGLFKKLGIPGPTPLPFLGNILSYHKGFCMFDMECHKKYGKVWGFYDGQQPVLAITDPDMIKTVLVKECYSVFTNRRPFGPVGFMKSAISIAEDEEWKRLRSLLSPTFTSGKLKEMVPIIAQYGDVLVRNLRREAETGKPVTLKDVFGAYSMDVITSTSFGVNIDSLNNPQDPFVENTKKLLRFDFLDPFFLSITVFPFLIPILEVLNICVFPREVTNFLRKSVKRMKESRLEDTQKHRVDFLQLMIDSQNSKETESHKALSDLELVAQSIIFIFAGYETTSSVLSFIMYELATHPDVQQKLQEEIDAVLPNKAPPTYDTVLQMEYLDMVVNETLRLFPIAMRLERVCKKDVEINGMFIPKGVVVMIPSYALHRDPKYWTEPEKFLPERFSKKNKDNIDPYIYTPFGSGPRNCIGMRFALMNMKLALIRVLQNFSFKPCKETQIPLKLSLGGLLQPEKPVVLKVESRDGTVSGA

For `Cc1cc2c(NC(=O)N[C@@H]3CC(C)(C)Oc4c3ccc(F)c4Cl)cccc2cn1` [Example 110, N-[(4R)-8-chloro-7-fluoro-2,2-dimethyl-3,4-dihydro-2H-chromen-4-yl]-N′-(3-methylisoquinolin-5-yl)urea], the inhibition at 25 min, 2.2 µM (CYP2C9) was 13%, the inhibition at 25 min, 2.2 µM (CYP2D6) was 1.4% and the inhibition at 25 min, 2.2 µM (CYP3A4) was 0.25%. For the same compound, the “Change in MAP or HR ≧ 15% ?” value [1] was “Yes (An observed increase or decrease of greater than 15% in MAP (mean arterial pressure) or HR (heart rate) in one or more of the animals in the test group relative to the vehicle control group is indicated as “Yes” in the table)”.
Compound `Cc1cc2c(NC(=O)N[C@@H]3CC(C)(C)Oc4c3ccc(F)c4F)cccc2cn1` [Example 113, N-[(4R)-7,8-difluoro-2,2-dimethyl-3,4-dihydro-2H-chromen-4-yl]-N′-(3-methylisoquinolin-5-yl)urea] has an inhibition at 25 min, 2.2 µM (CYP2C9) of 7.6%, an inhibition at 25 min, 2.2 µM (CYP2D6) of 0% and an inhibition at 25 min, 2.2 µM (CYP3A4) of 9%. For the same compound, the “Change in MAP or HR ≧ 15% ?” value [1] was “Yes (An observed increase or decrease of greater than 15% in MAP (mean arterial pressure) or HR (heart rate) in one or more of the animals in the test group relative to the vehicle control group is indicated as “Yes” in the table)”.
For `Cc1cc2c(NC(=O)N[C@@H]3CC(C)(C)Oc4cc(C(F)(F)F)ccc43)cccc2cn1` [Example 118, N-[(4R)-2,2-dimethyl-7-(trifluoromethyl)-3,4-dihydro-2H-chromen-4-yl]-N′-(3-methylisoquinolin-5-yl)urea], the inhibition at 25 min, 2.2 µM (CYP2C9) was 7.8%, the inhibition at 25 min, 2.2 µM (CYP2D6) was 21% and the inhibition at 25 min, 2.2 µM (CYP3A4) was 0%. The “Change in MAP or HR ≧ 15% ?” value [1] was “Yes (An observed increase or decrease of greater than 15% in MAP (mean arterial pressure) or HR (heart rate) in one or more of the animals in the test group relative to the vehicle control group is indicated as “Yes” in the table)”.
In the case of `Cc1cc2c(NC(=O)N[C@@H]3CC(C)(C)Oc4c(F)cccc43)cccc2cn1` [Example 119, N-[(4R)-8-fluoro-2,2-dimethyl-3,4-dihydro-2H-chromen-4-yl]-N′-(3-methylisoquinolin-5-yl)urea], the inhibition at 25 min, 2.2 µM (CYP2C9) is reported as 2.1%, the inhibition at 25 min, 2.2 µM (CYP2D6) is reported as 8.7% and the inhibition at 25 min, 2.2 µM (CYP3A4) is reported as 0%. The “Change in MAP or HR ≧ 15% ?” value [1] was “Yes (An observed increase or decrease of greater than 15% in MAP (mean arterial pressure) or HR (heart rate) in one or more of the animals in the test group relative to the vehicle control group is indicated as “Yes” in the table)”.
Compound `Cc1cc2c(NC(=O)N[C@@H]3CC(CF)(CF)Oc4c(F)cc(F)cc43)cccc2cn1` [Example 120, N-[(4R)-6,8-difluoro-2,2-bis(fluoromethyl)-3,4-dihydro-2H-chromen-4-yl]-N′-(3-methylisoquinolin-5-yl)urea] has an inhibition at 25 min, 2.2 µM (CYP2C9) of 11%, an inhibition at 25 min, 2.2 µM (CYP2D6) of 6.2% and an inhibition at 25 min, 2.2 µM (CYP3A4) of 25%. The “Change in MAP or HR ≧ 15% ?” value [1] was “No (an observed increase or decrease of less than or equal to 15% in MAP (mean arterial pressure) or HR (heart rate) in the test group of animals relative to the vehicle control group is indicated as “No” in the table)”.
With `Cc1cc2c(NC(=O)N[C@@H]3CC(C)(C)Oc4cc(F)ccc43)c(F)ccc2cn1` [Example 123, N-[(4R)-7-fluoro-2,2-dimethyl-3,4-dihydro-2H-chromen-4-yl]-N′-(6-fluoro-3-methylisoquinolin-5-yl)urea] the inhibition at 25 min, 2.2 µM (CYP2C9) was 19%, the inhibition at 25 min, 2.2 µM (CYP2D6) was 42% and the inhibition at 25 min, 2.2 µM (CYP3A4) was 49%. For the same compound, the “Change in MAP or HR ≧ 15% ?” value [1] was “No (an observed increase or decrease of less than or equal to 15% in MAP (mean arterial pressure) or HR (heart rate) in the test group of animals relative to the vehicle control group is indicated as “No” in the table)”.
In the case of “N-[(4R)-2,2-diethyl-6-fluoro-3,4-dihydro-2H-chromen-4-yl]-N-(3-methylisoquinolin-5-yl)urea [Example 56]”, the “CYP2C9 % inh @ 2.2 μM” value (CYP2C9) is reported as 20%, the “CYP2D6 % inh @ 2.2 μM)” value (CYP2D6) is reported as 14% and the “CYP3A4 % inh @ 2.2 μM” value (CYP3A4) is reported as 17%. For the same compound, the “Change in MAP or HR ≧ 15% ?” value [1] was “No (an observed increase or decrease of less than or equal to 15% in MAP (mean arterial pressure) or HR (heart rate) in the test group of animals relative to the vehicle control group is indicated as “No” in the table)”.
For “N-[(4R)-2,2-diethyl-8-fluoro-3,4-dihydro-2H-chromen-4-yl]-N-(3-methylisoquinolin-5-yl)urea [Example 62]”, the “CYP2C9 % inh @ 2.2 μM” value (CYP2C9) was 22%, the “CYP2D6 % inh @ 2.2 μM)” value (CYP2D6) was 9.1% and the “CYP3A4 % inh @ 2.2 μM” value (CYP3A4) was 0%. The “Change in MAP or HR ≧ 15% ?” value [1] was “No (an observed increase or decrease of less than or equal to 15% in MAP (mean arterial pressure) or HR (heart rate) in the test group of animals relative to the vehicle control group is indicated as “No” in the table)”.
For “N-[(4R)-6,8-difluoro-2,2-dimethyl-3,4-dihydro-2H-chromen-4-yl]-N-(3-methylisoquinolin-5-yl)urea [Example 98]”, the “CYP2C9 % inh @ 2.2 μM” value (CYP2C9) was 8.4%, the “CYP2D6 % inh @ 2.2 μM)” value (CYP2D6) was 3.7% and the “CYP3A4 % inh @ 2.2 μM” value (CYP3A4) was 0%. The “Change in MAP or HR ≧ 15% ?” value [1] was “Yes (An observed increase or decrease of greater than 15% in MAP (mean arterial pressure) or HR (heart rate) in one or more of the animals in the test group relative to the vehicle control group is indicated as “Yes” in the table)”.
